Assays:
Assay type in all cases: in vivo
[1] = system: barnyardgrass (Echinochloa crus-galli); assay: Test A preemergence, barnyardgrass; conditions: Preemergence, 0 to 100 scale (0 no effect, 100 complete control)
Procedure, shortened: (§1)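 For postemergence, one- to two-leaf plants 2–10 cm tall were sprayed; for preemergence, seeded loam–sand soil got a directed spray. Both used compound in a non-phytotoxic, surfactant-containing solvent, with visual injury ratings (0–100) after roughly 10 greenhouse days.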

kochia (Kochia scoparia) [2] = assay: Test A preemergence, kochia; conditions: Preemergence, 0 to 100 scale (0 no effect, 100 complete control)
Procedure, shortened: as §1

[3] = system: ragweed (common ragweed, Ambrosia elatior); assay: Test A preemergence, ragweed; conditions: Preemergence, 0 to 100 scale (0 no effect, 100 complete control)
Procedure, shortened: as §1

[4] = system: ryegrass, Italian (Italian ryegrass, Lolium multiflorum); assay: Test A preemergence, Italian ryegrass; conditions: Preemergence, 0 to 100 scale (0 no effect, 100 complete control)
Procedure, shortened: as §1

[5] = system: foxtail, giant (giant foxtail, Setaria faberii); assay: Test A preemergence, giant foxtail; conditions: Preemergence, 0 to 100 scale (0 no effect, 100 complete control)
Procedure, shortened: as §1

[6] = system: pigweed (Amaranthus retroflexus); assay: Test A preemergence, pigweed; conditions: Preemergence, 0 to 100 scale (0 no effect, 100 complete control)
Procedure, shortened: as §1

[7] = system: barnyardgrass (Echinochloa crus-galli); assay: Test A postemergence, barnyardgrass
Procedure, shortened: as §1

kochia (Kochia scoparia) [8] = assay: Test A postemergence, kochia
Procedure, shortened: as §1

[9] = system: ragweed (common ragweed, Ambrosia elatior); assay: Test A postemergence, ragweed
Procedure, shortened: as §1

[10] = system: ryegrass, Italian (Italian ryegrass, Lolium multiflorum); assay: Test A postemergence, Italian ryegrass
Procedure, shortened: as §1

[11] = system: foxtail, giant (giant foxtail, Setaria faberii); assay: Test A postemergence, giant foxtail
Procedure, shortened: as §1

[12] = system: pigweed (Amaranthus retroflexus); assay: Test A postemergence, pigweed
Procedure, shortened: as §1

[13] = system: wheat (Triticum aestivum); assay: Test A postemergence, wheat
Procedure, shortened: as §1

corn (Zea mays) = assay: Test A postemergence, corn
Procedure, shortened: as §1

[14] = system: blackgrass (Alopecurus myosuroides); assay: Test A postemergence, blackgrass
Procedure, shortened: as §1

[15] = system: galium (catchweed bedstraw, Galium aparine); assay: Test A postemergence, galium
Procedure, shortened: as §1

rice (Oryza sativa) = assay: Test B flooded paddy test, rice; conditions: 250 g ai/ha, Flood; visual rating after 13 to 15 days; scale 0 to 100, 0 is no effect, 100 is complete control
Procedure, shortened: (§2)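 Plants grown to 2-leaf stage, pots flooded to 3 cm above soil and compound applied directly to paddy water, depth maintained throughout. After 13-15 days in greenhouse, visual rating against untreated controls on 0-100 scale (0 no effect, 100 complete control).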

[16] = system: sedge, umbrella (small-flower umbrella sedge, Cyperus difformis); assay: Test B flooded paddy test, umbrella sedge; conditions: 250 g ai/ha, Flood; visual rating after 13 to 15 days; scale 0 to 100, 0 is no effect, 100 is complete control
Procedure, shortened: as §2

[17] = system: ducksalad (Heteranthera limosa); assay: Test B flooded paddy test, ducksalad; conditions: 250 g ai/ha, Flood; visual rating after 13 to 15 days; scale 0 to 100, 0 is no effect, 100 is complete control
Procedure, shortened: as §2

[18] = system: barnyardgrass (Echinochloa crus-galli); assay: Test B flooded paddy test, barnyardgrass; conditions: 250 g ai/ha, Flood; visual rating after 13 to 15 days; scale 0 to 100, 0 is no effect, 100 is complete control
Procedure, shortened: as §2

[19] = 31 g ai/ha, postemergence, 0 to 100 scale, 0 is no effect, 100 is complete control, approximately 10 days
[20] = 125 g ai/ha, postemergence, 0 to 100 scale, 0 is no effect, 100 is complete control, approximately 10 days
[21] = 500 g ai/ha, postemergence, 0 to 100 scale, 0 is no effect, 100 is complete control, approximately 10 days
[22] = Postemergence, 31 g ai/ha, 0 to 100 scale (0 no effect, 100 complete control)

| Structure (SMILES) | Plant response rating, Barnyardgrass ([1]; 125 g ai/ha) | Plant response rating, Kochia (kochia (Kochia scoparia) [2]; 125 g ai/ha) | Plant response rating, Ragweed ([3]; 125 g ai/ha) | Plant response rating, Ryegrass, Italian ([4]; 125 g ai/ha) | Plant response rating, Foxtail, Giant ([5]; 125 g ai/ha) | Plant response rating, Pigweed ([6]; 125 g ai/ha) | Plant response rating, Barnyardgrass [7, 20] | Plant response rating, Kochia (kochia (Kochia scoparia) [8]; [20]) | Plant response rating, Ragweed [9, 20] | Plant response rating, Ryegrass, Italian [10, 20] | Plant response rating, Foxtail, Giant [11, 20] | Plant response rating, Pigweed [12, 20] | Plant response rating, Wheat [13, 20] | Plant response rating, Corn (corn (Zea mays); [20]) | Plant response rating, Blackgrass [14, 20] | Plant response rating, Galium [15, 20] | Plant response rating, Rice (rice (Oryza sativa)) | Plant response rating, Sedge, Umbrella [16] | Plant response rating, Ducksalad [17] | Plant response rating, Barnyardgrass [18] | also measured |
| --- | --- | --- | --- | --- | --- | --- | --- | --- | --- | --- | --- | --- | --- | --- | --- | --- | --- | --- | --- | --- | --- |
| Cc1cccc(Oc2ncc(Cl)cn2)c1OCCC(F)(F)F [Compound 64] | 60 | 0 | 0 | 0 | 20 | 100 | 10 | 20 | 0 | 0 | 10 | 30 | 0 | 10 | 10 | 0 | 20 | 90 | 85 | 0 | Plant response rating, Barnyardgrass ([1]; 31 g ai/ha): 10; Plant response rating, Kochia (kochia (Kochia scoparia) [2]; 31 g ai/ha): 0; Plant response rating, Ragweed ([3]; 31 g ai/ha): 0; Plant response rating, Ryegrass, Italian ([4]; 31 g ai/ha): 0; Plant response rating, Foxtail, Giant ([5]; 31 g ai/ha): 0; Plant response rating, Pigweed ([6]; 31 g ai/ha): 0; Plant response rating, Barnyardgrass [7, 19]: 0; Plant response rating, Kochia (kochia (Kochia scoparia) [8]; [19]): 10; Plant response rating, Ragweed [9, 19]: 0; Plant response rating, Ryegrass, Italian [10, 19]: 0; Plant response rating, Foxtail, Giant [11, 19]: 0; Plant response rating, Pigweed [12, 19]: 20; Plant response rating, Wheat [13, 19]: 0; Plant response rating, Corn (corn (Zea mays); [19]): 0; Plant response rating, Blackgrass [14, 19]: 0; Plant response rating, Galium [15, 19]: 0 |
| CC(C)CCOc1c(Br)cccc1Oc1ncc(Cl)cn1 [Compound 12] | 70 | 0 | 0 | 0 | 90 | 40 | 10 | 90 | 10 | 0 | 10 | 70 | 0 | 30 | 20 | 70 | 0 | 0 | 0 | 0 | Plant response rating, Barnyardgrass ([1]; 500 g ai/ha): 100; Plant response rating, Kochia (kochia (Kochia scoparia) [2]; 500 g ai/ha): 70; Plant response rating, Ragweed ([3]; 500 g ai/ha): 0; Plant response rating, Ryegrass, Italian ([4]; 500 g ai/ha): 40; Plant response rating, Foxtail, Giant ([5]; 500 g ai/ha): 100; Plant response rating, Pigweed ([6]; 500 g ai/ha): 100; Plant response rating, Barnyardgrass [7, 21]: 100; Plant response rating, Kochia (kochia (Kochia scoparia) [8]; [21]): 100; Plant response rating, Ragweed [9, 21]: 20; Plant response rating, Ryegrass, Italian [10, 21]: 30; Plant response rating, Foxtail, Giant [11, 21]: 100; Plant response rating, Pigweed [12, 21]: 100; Plant response rating, Wheat [13, 21]: 20; Plant response rating, Corn (corn (Zea mays); [21]): 30; Plant response rating, Blackgrass [14, 21]: 60; Plant response rating, Galium [15, 21]: 100 |
| C#Cc1cccc(Oc2ncc(Cl)cn2)c1OCCCF [Compound 71] | 0 | 0 | 0 | 0 | 0 | 0 | 0 | 0 | 0 | 0 | 0 | 0 | 0 | 0 | 0 | 0 | 0 | 0 | 0 | 0 | Plant response rating, Barnyardgrass ([1]; 31 g ai/ha): 0; Plant response rating, Kochia (kochia (Kochia scoparia) [2]; 31 g ai/ha): 0; Plant response rating, Ragweed ([3]; 31 g ai/ha): 0; Plant response rating, Ryegrass, Italian ([4]; 31 g ai/ha): 0; Plant response rating, Foxtail, Giant ([5]; 31 g ai/ha): 0; Plant response rating, Pigweed ([6]; 31 g ai/ha): 0; Plant response rating, Barnyardgrass [7, 22]: 0; Plant response rating, Kochia (kochia (Kochia scoparia) [8]; [22]): 0; Plant response rating, Ragweed [9, 22]: 0; Plant response rating, Ryegrass, Italian [10, 22]: 0; Plant response rating, Foxtail, Giant [11, 22]: 0; Plant response rating, Pigweed [12, 22]: 0; Plant response rating, Wheat [13, 22]: 0; Plant response rating, Corn (corn (Zea mays); [22]): 0; Plant response rating, Blackgrass [14, 22]: 0; Plant response rating, Galium [15, 22]: 0 |
| N#Cc1cccc(Oc2ncc(F)cn2)c1OCCC(F)(F)F [Compound 40] | 80 | 100 | 90 | 10 | 90 | 100 | 50 | 70 | 10 | 10 | 80 | 90 | 0 | 20 | 30 | 60 | 0 | 70 | 75 | 0 | Plant response rating, Barnyardgrass ([1]; 31 g ai/ha): 30; Plant response rating, Kochia (kochia (Kochia scoparia) [2]; 31 g ai/ha): 90; Plant response rating, Ragweed ([3]; 31 g ai/ha): 10; Plant response rating, Ryegrass, Italian ([4]; 31 g ai/ha): 0; Plant response rating, Foxtail, Giant ([5]; 31 g ai/ha): 70; Plant response rating, Pigweed ([6]; 31 g ai/ha): 100; Plant response rating, Barnyardgrass [7, 19]: 0; Plant response rating, Kochia (kochia (Kochia scoparia) [8]; [19]): 50; Plant response rating, Ragweed [9, 19]: 0; Plant response rating, Ryegrass, Italian [10, 19]: 0; Plant response rating, Foxtail, Giant [11, 19]: 10; Plant response rating, Pigweed [12, 19]: 80; Plant response rating, Wheat [13, 19]: 0; Plant response rating, Corn (corn (Zea mays); [19]): 10; Plant response rating, Blackgrass [14, 19]: 10; Plant response rating, Galium [15, 19]: 20 |
| N#Cc1cccc(Oc2ncc(Cl)cn2)c1OCc1ccc(Cl)cn1 [Compound 6] | 0 | 0 | 0 | 0 | 20 | 90 | 10 | 60 | 0 | 0 | 10 | 80 | 0 | 20 | 10 | 40 | 0 | 0 | 0 | 0 | Plant response rating, Barnyardgrass ([1]; 31 g ai/ha): 0; Plant response rating, Kochia (kochia (Kochia scoparia) [2]; 31 g ai/ha): 0; Plant response rating, Ragweed ([3]; 31 g ai/ha): 0; Plant response rating, Ryegrass, Italian ([4]; 31 g ai/ha): 0; Plant response rating, Foxtail, Giant ([5]; 31 g ai/ha): 0; Plant response rating, Pigweed ([6]; 31 g ai/ha): 10; Plant response rating, Barnyardgrass [7, 19]: 0; Plant response rating, Kochia (kochia (Kochia scoparia) [8]; [19]): 10; Plant response rating, Ragweed [9, 19]: 0; Plant response rating, Ryegrass, Italian [10, 19]: 0; Plant response rating, Foxtail, Giant [11, 19]: 0; Plant response rating, Pigweed [12, 19]: 20; Plant response rating, Wheat [13, 19]: 0; Plant response rating, Corn (corn (Zea mays); [19]): 10; Plant response rating, Blackgrass [14, 19]: 0; Plant response rating, Galium [15, 19]: 30 |

Reference: patent US10485235B2, “Aryloxypyrimidinyl ethers as herbicides” (FMC Corporation, priority 2015, dated 2019)
